# Target: T1, All2699g1g2 (g1g2) (Nostoc sp. PCC 7120 = FACHB-418, UniProt A0ACD6B963)
# T1 construct: gene all2699; GAF1-GAF2 (GAF-PHY) photosensory module of All2699; borders, tags and host not in main text
# Test: steady-state absorption, CD and femtosecond transient absorption of the chromophore-bound protein
# Format: binding
# Conditions: covalent (known biology, not given); chromophore embedded in GAF1 domain; Pr and Pfr states
# T1 sequence (A0ACD6B963 1-656 limits assumed): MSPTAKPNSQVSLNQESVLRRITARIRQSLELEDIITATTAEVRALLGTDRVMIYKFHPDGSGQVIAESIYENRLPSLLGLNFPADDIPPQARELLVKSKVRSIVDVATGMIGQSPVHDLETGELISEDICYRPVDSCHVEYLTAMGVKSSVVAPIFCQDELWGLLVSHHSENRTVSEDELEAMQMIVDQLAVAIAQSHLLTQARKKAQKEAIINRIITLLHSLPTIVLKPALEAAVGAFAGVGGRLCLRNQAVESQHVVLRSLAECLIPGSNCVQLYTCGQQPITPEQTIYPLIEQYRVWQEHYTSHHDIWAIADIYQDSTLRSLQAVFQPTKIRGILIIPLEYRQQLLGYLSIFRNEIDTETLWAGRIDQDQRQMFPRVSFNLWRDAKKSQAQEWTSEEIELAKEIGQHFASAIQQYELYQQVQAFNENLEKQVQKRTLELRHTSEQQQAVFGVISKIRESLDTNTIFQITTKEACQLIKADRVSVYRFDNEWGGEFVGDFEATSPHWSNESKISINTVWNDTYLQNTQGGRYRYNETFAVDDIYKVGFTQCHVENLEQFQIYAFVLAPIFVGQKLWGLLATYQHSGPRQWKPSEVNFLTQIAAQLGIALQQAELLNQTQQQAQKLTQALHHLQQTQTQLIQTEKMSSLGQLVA
compound,measurement,value
"C/C=C1/C(=C/C2=NC(=C\c3[nH]c(/C=C4\NC(=O)C(CC)=C4C)c(C)c3CCC(=O)O)/C(CCC(=O)O)=C2C)NC(=O)[C@@H]1C [PCB, phycocyanobilin]","steady-state absorption, CD and femtosecond transient absorption of the chromoph",interactions of the PCB chromophore with the “tongue” region of the g2 domain in g1g2
